Experimental findings from US20230131025A1, “QUINOLYL PHOSPHINE OXIDE COMPOUND, AND COMPOSITION AND APPLICATION THEREOF” (Betta Pharmaceuticals Co., Ltd., priority 2020, published 2023) are described below.

The subject of test [1] is human epidermal cancer cells A431 carrying EGFR WT. The test is described as follows: Cell proliferation experiment (CellTiter Glo, 72 hours). The settings on record: Homo sapiens, A-431. In kind it is cell-based. The procedure:
(§1) Experiment 2 Cell Proliferation Experiment
Adherent cells: human epidermal cancer cells A431 carrying EGFR WT.
(§2) RPMI 1640 with 10% FBS and 1% Penicillin-Streptomycin, or DMEM with 10% FBS and 1% Penicillin-Streptomycin.
(§3) a) Diluting compounds being tested (20 mM stock solutions), as an initial concentration, to 10 mM with 100% DMSO, followed by diluting compounds serially in a 3-fold gradient such that each compound is diluted into 12 concentrations (Cat #P-05525, Labcyte).
(§4) b) Diluting the above compound solutions for 100-fold with culture medium to prepare 10-fold working solution.
(§5) b) Seeding cells into 96-well cell culture plate at a density of 2000 or 3000 cells/well, with 135 μL/well.
(§6) a) Adding the compound prepared in step 2 to the cell plate at 15 μL per well, resulting in a final maximum concentration of 10000 nM or 1111 nM. The compounds is diluted serially in a 3-fold gradient such that each compound is diluted into 9 concentrations, wherein the final concentration of DMSO is 0.1%. Blank control wells are added with medium (0.1% DMSO).
(§7) b) Re-incubating the cells in an incubator for 72 hours. 5. Detection
(§8) a) Adding 50 μL of CTG reagent (CellTiter Glo kit, promega, Cat #G7573) to the 96-well cell culture plate.
(§9) b) Shaking the plate for 2 minutes and reacting at room temperature for 10 minutes.
(§10) c) Reading the luminescence signal value (Lum) using PerkinElmer reader.
(§11) The cell survival inhibition rate of each well was calculated. The data was analyzed by GraphPad Prism 6.0 software. The dose-response curve was obtained by fitting the data with a nonlinear regression equation. The IC50 of each compound was calculated as follows:
(§12) Cell survival inhibition rate (%)=(1−(Lumcompound tested−Lummedium control)/(Lumcell control−Lummedium control))×100%
(§13) Y=Min+(Max−Min)/(1+10^((Log IC50−X)*Slope));
(§14) X: logarithm of compound concentration. Y: cell survival inhibition rate.
(In ATP-based viability assays light output follows the ATP content of the culture.)

The target of the next test is Ba/F3 EGFR WT (Homo sapiens, UniProt P00533). Described as above. The test is classed as cell-based. Particulars: read-out: BaF3 EGFR WT IC50. The protocol:
as §1
(§15) Suspension cells: Ba/F3 cells with stable overexpression of Δ19del/T790M/C797S mutant gene, named Ba/F3-Δ19del/T790M/C797S; Ba/F3 cells with overexpression of EGFR WT, named Ba/F3 EGFR WT.
as §2, §3, §4, §5, §6, §7, §8, §9, §10, §11, §12, §13, §14

Another test has as its target Ba/F3-Δ19del/T790M/C797S (Homo sapiens, UniProt P00533, T790M/C797S, cells depend on it, form not given). Described as above. Particulars: read-out: Ba/F3/EGFR Δ19del/T790M/C797S IC50. In kind it is cell-based. The procedure: as §1, §15, §2, §3, §4, §5, §6, §7, §8, §9, §10, §11, §12, §13, §14
The target of a further test is EGFR WT (Homo sapiens, UniProt P00533). The test is described as follows: Kinase inhibition assay (mobility shift). In kind it is biochemical. The protocol: (§16) Experiment 1 Kinase Inhibition Assay Mobility shift assays were performed to determine inhibitory activity of compounds against EGFR^Δ19del/T790M/C797S, EGFR WT and IGF1R kinases. The enzymatic reaction scheme is as follows:
(§17) 1. Preparing 1*Kinase Buffer as follows:
(§18) 2. Preparing compound concentration gradient: the initial concentration of the compound tested in the assay was 3,000 nM or 100 nM, which is then diluted to be 100-fold final concentration in 100% DMSO in a 384-source plate. Compounds in 10 concentrations were diluted in a 3-fold gradient with Precision. 250 nL of compound in 100-fold final concentration was transferred to OptiPlate-384F plate by using a dispenser named Echo 550.
(§19) 3. Preparing kinase solution at 2.5-fold the final concentration with 1×kinase buffer.
(§20) 4. Adding 10 μL of kinase solution at 2.5-fold the final concentration to compound wells and positive control wells respectively; and adding 10 μL of 1×kinase buffer to negative control wells.
(§21) 5. Centrifuging the wells at 1,000 rpm for 30 seconds, mixing the reaction plate well by shaking and incubating it at room temperature for 10 minutes.
(§22) 6. Preparing a mixed solution of ATP and kinase substrate at 5-fold/3-fold the final concentration with 1×Kinase buffer, respectively.
(§23) 7. Initiating the reaction by adding 15 μL of the mixed solution of ATP and kinase substrate at 5-fold/3-fold the final concentration.
(§24) 8. Centrifuging the 384-well plate at 1,000 rpm for 30 seconds, mixing the reaction plate well by shaking and incubating it at room temperature for a corresponding time.
(§25) 9. Adding 30 μL of assay stop solution to stop the kinase reaction, and centrifuging the plate at 1,000 rpm for 30 seconds and mixing it well by shaking.
(§26) 10. Reading the conversion rate with Caliper EZ Reader.
(§27) [formula] • wherein, “Conversion % sample” is the conversion rate reading of the sample;
(§28) “Conversion %_min” is the mean value of the negative control wells, representing the conversion rate readings of the well without enzymatic activity; “Conversion %_max” is the mean value of the positive control wells, representing the conversion rate readings of the wells without compound inhibition. • Dose-response curve is plotted with the logarithmic concentration on the X-axis and percent inhibition on the Y-axis. The fitting of the dose-response curve is made with the module “log(inhibitor) vs. response—Variable slope” of the analysis software GraphPad Prism 5, so that the IC50 value of each compound on enzymatic activity is obtained. • The calculation formula is: Y=Bottom+(Top−Bottom)/(1+10^((Log IC50−X)*HillSlope)).

Another test has as its target EGFR Δ19del/T790M/C797S (Homo sapiens, UniProt P00533, T790M/C797S, form not given). The test is described as follows: Kinase inhibition assay (mobility shift). The test is classed as biochemical. The protocol:
as §16, §17, §18, §19, §20, §21, §22, §23, §24, §25, §26, §27, §28

In the next test the target is IGF1R (Homo sapiens, UniProt P08069). The test is described as follows: Kinase inhibition assay (mobility shift). The test is classed as biochemical. The protocol: as §16, §17, §18, §19, §20, §21, §22, §23, §24, §25, §26, §27, §28
IGF1R, sequence (P08069 31-1367, species assumed): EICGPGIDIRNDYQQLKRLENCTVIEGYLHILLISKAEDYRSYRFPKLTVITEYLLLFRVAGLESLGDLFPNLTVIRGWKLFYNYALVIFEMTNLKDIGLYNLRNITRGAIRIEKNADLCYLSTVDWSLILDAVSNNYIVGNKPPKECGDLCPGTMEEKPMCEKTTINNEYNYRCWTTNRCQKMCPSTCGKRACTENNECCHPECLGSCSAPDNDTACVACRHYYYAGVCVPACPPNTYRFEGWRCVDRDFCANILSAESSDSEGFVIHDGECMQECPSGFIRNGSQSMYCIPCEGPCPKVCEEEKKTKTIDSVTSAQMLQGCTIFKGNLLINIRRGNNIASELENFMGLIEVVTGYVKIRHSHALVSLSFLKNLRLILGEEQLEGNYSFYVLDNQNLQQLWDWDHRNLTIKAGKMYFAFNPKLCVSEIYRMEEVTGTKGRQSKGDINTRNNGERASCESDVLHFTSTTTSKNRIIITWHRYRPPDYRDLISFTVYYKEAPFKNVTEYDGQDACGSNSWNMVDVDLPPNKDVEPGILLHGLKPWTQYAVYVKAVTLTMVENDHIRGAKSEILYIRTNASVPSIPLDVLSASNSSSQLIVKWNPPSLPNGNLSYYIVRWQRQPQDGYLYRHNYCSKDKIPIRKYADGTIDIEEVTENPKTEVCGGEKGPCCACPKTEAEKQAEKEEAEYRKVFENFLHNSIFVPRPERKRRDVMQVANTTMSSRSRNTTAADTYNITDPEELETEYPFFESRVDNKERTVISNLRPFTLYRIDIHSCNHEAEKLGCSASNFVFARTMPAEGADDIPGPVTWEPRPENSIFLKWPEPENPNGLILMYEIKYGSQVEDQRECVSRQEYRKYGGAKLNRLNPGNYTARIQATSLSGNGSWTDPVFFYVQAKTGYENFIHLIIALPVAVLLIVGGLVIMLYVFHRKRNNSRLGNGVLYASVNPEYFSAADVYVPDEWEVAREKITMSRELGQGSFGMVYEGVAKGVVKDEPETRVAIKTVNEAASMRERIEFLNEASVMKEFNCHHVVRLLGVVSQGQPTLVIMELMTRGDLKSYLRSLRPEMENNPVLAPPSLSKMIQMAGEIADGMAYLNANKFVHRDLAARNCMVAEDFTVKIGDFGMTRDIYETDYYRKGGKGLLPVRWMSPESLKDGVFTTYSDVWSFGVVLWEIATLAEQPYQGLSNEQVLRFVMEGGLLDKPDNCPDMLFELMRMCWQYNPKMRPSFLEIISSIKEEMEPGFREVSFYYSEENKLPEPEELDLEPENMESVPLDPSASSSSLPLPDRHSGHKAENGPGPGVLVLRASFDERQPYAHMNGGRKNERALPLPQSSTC

EGFR WT, sequence (P00533 25-1210): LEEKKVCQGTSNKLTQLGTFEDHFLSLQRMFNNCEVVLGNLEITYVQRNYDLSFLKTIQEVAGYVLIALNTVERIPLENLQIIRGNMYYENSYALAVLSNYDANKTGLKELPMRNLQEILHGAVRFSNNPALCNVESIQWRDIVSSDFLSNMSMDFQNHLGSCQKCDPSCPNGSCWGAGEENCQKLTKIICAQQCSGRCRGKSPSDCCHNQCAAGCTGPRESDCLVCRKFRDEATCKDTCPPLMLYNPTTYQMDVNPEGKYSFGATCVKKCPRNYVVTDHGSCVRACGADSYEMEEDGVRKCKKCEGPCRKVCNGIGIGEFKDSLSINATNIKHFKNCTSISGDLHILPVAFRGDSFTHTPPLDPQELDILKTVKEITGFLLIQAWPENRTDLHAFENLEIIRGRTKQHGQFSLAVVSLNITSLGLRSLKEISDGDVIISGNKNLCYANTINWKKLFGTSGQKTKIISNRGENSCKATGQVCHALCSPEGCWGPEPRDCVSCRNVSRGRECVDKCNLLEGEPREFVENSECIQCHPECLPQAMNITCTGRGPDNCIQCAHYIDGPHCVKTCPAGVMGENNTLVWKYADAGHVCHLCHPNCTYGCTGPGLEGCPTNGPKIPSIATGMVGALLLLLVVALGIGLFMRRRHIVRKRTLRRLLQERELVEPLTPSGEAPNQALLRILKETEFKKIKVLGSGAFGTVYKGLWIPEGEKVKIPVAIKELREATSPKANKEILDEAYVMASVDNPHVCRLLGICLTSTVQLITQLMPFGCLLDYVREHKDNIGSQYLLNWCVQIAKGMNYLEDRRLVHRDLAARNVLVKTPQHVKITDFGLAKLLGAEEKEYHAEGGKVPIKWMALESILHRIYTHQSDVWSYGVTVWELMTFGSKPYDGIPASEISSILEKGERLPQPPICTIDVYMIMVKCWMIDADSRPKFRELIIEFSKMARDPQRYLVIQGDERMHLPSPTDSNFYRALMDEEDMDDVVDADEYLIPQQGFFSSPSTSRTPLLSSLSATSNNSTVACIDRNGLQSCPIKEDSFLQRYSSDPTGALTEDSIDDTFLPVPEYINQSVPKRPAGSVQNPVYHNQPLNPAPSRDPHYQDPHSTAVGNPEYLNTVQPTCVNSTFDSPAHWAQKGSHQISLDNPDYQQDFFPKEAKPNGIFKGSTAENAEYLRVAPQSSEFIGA
Ba/F3 EGFR WT, sequence (P00533 whole entry, change not shown): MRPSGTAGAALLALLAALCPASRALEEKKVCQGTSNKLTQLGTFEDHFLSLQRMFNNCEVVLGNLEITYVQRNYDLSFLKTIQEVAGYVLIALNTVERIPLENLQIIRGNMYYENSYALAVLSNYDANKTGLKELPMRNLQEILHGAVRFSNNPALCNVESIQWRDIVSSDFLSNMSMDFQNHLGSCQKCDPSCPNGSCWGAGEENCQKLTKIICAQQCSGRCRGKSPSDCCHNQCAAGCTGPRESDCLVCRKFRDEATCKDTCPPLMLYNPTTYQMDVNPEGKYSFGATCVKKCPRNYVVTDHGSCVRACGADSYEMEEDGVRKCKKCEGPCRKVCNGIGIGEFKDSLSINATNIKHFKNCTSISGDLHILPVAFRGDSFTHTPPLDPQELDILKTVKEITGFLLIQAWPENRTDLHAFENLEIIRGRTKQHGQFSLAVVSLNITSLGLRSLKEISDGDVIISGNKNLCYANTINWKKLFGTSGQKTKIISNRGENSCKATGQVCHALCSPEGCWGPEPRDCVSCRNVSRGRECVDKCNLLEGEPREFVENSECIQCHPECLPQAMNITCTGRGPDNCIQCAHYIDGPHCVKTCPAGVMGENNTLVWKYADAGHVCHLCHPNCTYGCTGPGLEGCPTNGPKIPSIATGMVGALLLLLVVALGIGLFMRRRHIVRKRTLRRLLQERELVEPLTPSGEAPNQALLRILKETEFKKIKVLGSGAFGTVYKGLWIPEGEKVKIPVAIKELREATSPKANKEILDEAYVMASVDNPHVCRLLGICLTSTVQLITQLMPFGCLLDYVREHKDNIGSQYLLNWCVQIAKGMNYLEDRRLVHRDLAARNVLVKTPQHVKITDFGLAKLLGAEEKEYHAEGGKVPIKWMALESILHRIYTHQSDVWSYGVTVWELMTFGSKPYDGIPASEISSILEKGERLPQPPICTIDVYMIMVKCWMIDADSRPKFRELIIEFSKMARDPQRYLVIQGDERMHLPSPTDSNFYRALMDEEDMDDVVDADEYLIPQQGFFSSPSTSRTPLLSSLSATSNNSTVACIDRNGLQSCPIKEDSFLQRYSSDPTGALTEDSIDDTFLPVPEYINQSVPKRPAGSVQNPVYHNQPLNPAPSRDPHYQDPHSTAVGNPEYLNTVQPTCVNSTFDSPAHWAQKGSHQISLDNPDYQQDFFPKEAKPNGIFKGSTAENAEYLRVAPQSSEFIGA
EGFR Δ19del/T790M/C797S, sequence (P00533 with tags, fused parts or gaps DEL746-750/T790M/C797S, form open): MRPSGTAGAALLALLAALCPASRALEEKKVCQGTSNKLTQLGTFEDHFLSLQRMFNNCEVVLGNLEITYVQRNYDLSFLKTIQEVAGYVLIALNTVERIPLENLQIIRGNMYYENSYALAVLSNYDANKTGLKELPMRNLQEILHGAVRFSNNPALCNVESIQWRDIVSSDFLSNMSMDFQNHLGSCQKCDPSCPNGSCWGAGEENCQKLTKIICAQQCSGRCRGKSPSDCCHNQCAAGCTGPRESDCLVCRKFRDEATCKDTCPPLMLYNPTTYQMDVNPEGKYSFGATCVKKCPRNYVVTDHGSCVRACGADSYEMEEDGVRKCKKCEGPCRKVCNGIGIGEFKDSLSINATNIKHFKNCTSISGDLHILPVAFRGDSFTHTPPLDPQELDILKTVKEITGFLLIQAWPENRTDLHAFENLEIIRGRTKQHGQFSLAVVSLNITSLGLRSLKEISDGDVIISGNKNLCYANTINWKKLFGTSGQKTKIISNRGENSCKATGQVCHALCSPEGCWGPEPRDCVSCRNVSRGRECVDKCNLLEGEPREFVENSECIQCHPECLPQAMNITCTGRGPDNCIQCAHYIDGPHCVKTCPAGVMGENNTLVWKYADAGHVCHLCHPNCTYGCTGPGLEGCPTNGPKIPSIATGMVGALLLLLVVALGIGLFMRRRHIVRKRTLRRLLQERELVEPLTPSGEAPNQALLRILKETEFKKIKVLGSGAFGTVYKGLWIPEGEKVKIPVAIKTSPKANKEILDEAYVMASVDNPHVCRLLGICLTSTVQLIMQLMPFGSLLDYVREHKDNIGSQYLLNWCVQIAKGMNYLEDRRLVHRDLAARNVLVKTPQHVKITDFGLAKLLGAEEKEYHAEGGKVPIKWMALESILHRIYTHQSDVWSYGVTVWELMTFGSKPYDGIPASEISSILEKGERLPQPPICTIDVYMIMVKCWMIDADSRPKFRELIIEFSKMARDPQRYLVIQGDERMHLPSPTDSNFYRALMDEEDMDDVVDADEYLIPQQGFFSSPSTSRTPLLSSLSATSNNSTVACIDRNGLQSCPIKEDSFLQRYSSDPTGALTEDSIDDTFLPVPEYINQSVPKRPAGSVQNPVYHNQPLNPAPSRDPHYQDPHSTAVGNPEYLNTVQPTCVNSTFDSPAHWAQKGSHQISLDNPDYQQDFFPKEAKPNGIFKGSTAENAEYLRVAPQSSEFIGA

For orientation: IC50 means the concentration at which inhibition is half-maximal. With `COc1cc(N2CCC(N3CCN(C)CC3)CC2)c(OC)cc1Nc1ncc(Br)c(Nc2ccc3nc(C4CC4)ccc3c2P(C)(C)=O)n1` [Compound J-020, (6-((5-Bromo-2-((2,5-dimethoxy-4-(4-(4-methylpiperazin-1-yl)piperidin-1-yl)phenyl)amino)pyrimidin-4-yl)amino)-2-cyclopropylquinolin-5-yl)dimethylphosphine oxide], the 50% inhibitory concentration (IC50) is 983 nM in test [1], 21 nM at EGFR WT, 0.72 nM at EGFR Δ19del/T790M/C797S and 107 nM at IGF1R. The GI50 on Ba/F3 EGFR WT is 144 nM; at Ba/F3-Δ19del/T790M/C797S, 2.2 nM.

For the compound `COc1cc(N2CCC(N3CCN(C)CC3)CC2)c(C)cc1Nc1ncc(Br)c(Nc2ccc3ncccc3c2P(C)(C)=O)n1` [Compound J-041, (6-((5-Bromo-2-((2-methoxy-5-methyl-4-(4-(4-methylpiperazin-1-yl)piperidin-1-yl)phenyl)amino)pyrimidin-4-yl)amino)quinolin-5-yl)dimethylphosphine oxide], the IC50 in test [1] was found to be 228 nM; on EGFR WT, 11.5 nM; at EGFR Δ19del/T790M/C797S it was 0.2 nM; at IGF1R, 25 nM. The figures for the GI50 on Ba/F3 EGFR WT and on Ba/F3-Δ19del/T790M/C797S were 354 nM and 28.4 nM, respectively.

In the case of `COc1cc(Nc2ncc(Br)c(Nc3ccc4nc(C5CC5)ccc4c3P(C)(C)=O)n2)c(C(C)C)cc1N1CCOCC1` [Compound J-005, (6-((5-Bromo-2-((2-isopropyl-5-methoxy-4-morpholinylphenyl)amino)pyrimidin-4-yl)amino)-2-cyclopropylquinoline-5-yl)dimethylphosphine oxide], the IC50 came to 6140 nM in test [1], 132 nM on EGFR WT, 0.5 nM at EGFR Δ19del/T790M/C797S and 74.4 nM on IGF1R. Moreover, the GI50 at Ba/F3 EGFR WT came to 698 nM; on Ba/F3-Δ19del/T790M/C797S, 27 nM.

With `COc1cc(N2CCN(C)CC2)c(C)cc1Nc1ncc(Br)c(Nc2ccc3nc(C4CC4)ccc3c2P(C)(C)=O)n1` [Compound J-010, (6-((5-Bromo-2-((2-methoxy-5-methyl-4-(4-methylpiperazin-1-yl)phenyl)amino)pyrimidin-4-yl)amino)-2-cyclopropylquinolin-5-yl)dimethylphosphine oxide], the IC50 in test [1] worked out at 969 nM; on EGFR WT, 79 nM; on EGFR Δ19del/T790M/C797S, 0.2 nM; on IGF1R, 142 nM. The results for the GI50 on Ba/F3 EGFR WT and on Ba/F3-Δ19del/T790M/C797S were 187 nM and 11.5 nM, respectively.

With `COc1cc(N2CCN(C)CC2)c(C#N)cc1Nc1ncc(Br)c(Nc2ccc3nc(C4CC4)ccc3c2P(C)(C)=O)n1` [Compound J-012, 5-((5-Bromo-4-((2-cyclopropyl-5-(dimethylphosphineoxide)quinolin-6-yl)amino)pyrimidin-2-yl)amino)-4-methoxy-2-(4-methylpiperazin-1-yl)benzonitrile], the IC50 in test [1] stood at 830 nM; at EGFR WT, 43.9 nM; at EGFR Δ19del/T790M/C797S, 0.2 nM; at IGF1R, 279 nM. Also, the figures for the GI50 at Ba/F3 EGFR WT and on Ba/F3-Δ19del/T790M/C797S were 130 nM and 3.4 nM, respectively.

Turning to `COc1cc(N2CCN(C3CC3)CC2)c(C)cc1Nc1ncc(Br)c(Nc2ccc3nc(C4CC4)ccc3c2P(C)(C)=O)n1` [Compound J-038, (6-((5-Bromo-2-((4-(4-cyclopropylpiperazin-1-yl)-2-methoxy-5-methylphenyl)amino)pyrimidin-4-yl)amino)-2-cyclopropylquinolin-5-yl)dimethylphosphine oxide], the half-maximal inhibitory concentration (IC50) on EGFR WT worked out at 171 nM; on EGFR Δ19del/T790M/C797S it was 0.9 nM; on IGF1R it was 586 nM.

On to `CCc1cc(N2CCC(N3CCN(C)CC3)CC2)c(OC)cc1Nc1ncc(Br)c(Nc2ccc3nc(C4CC4)ccc3c2P(C)(C)=O)n1` [Compound J-031, (6-((5-Bromo-2-((2-ethyl-5-methoxy-4-(4-(4-methylpiperazin-1-yl)piperidin-1-yl)phenyl)amino)pyrimidin-4-yl)amino)-2-cyclopropylquinolin-5-yl)dimethylphosphine oxide], for which the concentration for half-maximal inhibition (IC50) on EGFR WT turned out to be 64 nM; on EGFR Δ19del/T790M/C797S, 0.5 nM; on IGF1R, 103 nM.

As to `COc1cc(N2CCN(C3CCCC3)CC2)c(C)cc1Nc1ncc(Br)c(Nc2ccc3nc(C4CC4)ccc3c2P(C)(C)=O)n1` [Compound J-032, (6-((5-Bromo-2-((4-(4-cyclopentylpiperazin-1-yl)-2-methoxy-5-methylphenyl)amino)pyrimidin-4-yl)amino)-2-cyclopropylquinolin-5-yl)dimethylphosphine oxide], the IC50 at EGFR WT was found to be 121 nM; on EGFR Δ19del/T790M/C797S, 1 nM; at IGF1R, 170 nM.

For the compound `COc1cc(Nc2ncc(Br)c(Nc3ccc4nc(C5CC5)ccc4c3P(C)(C)=O)n2)c(C#N)cc1N1CCC(N2CCN(C)CC2)CC1` [Compound J-025, 2-((5-Bromo-4-((2-cyclopropyl-5-(dimethylphosphineoxide)quinolin-6-yl)amino)pyrimidin-2-yl)amino)-4-methoxy-5-(4-(4-methylpiperazin-1-yl)piperidin-1-yl)benzonitrile], the IC50 on EGFR WT is 2310 nM; at EGFR Δ19del/T790M/C797S, 43 nM; at IGF1R it was greater than 3000 nM.

Consider `COc1cc(Nc2ncc(Br)c(Nc3ccc4nc(C5CC5)ccc4c3P(C)(C)=O)n2)c(C2CCOCC2)cc1N1CCC(N2CCN(C)CC2)CC1` [Compound J-026, (6-((5-Bromo-2-((5-methoxy-4-(4-(4-methylpiperazin-1-yl)piperidin-1-yl)-2-(tetrahydro-2H-pyran-4-yl)phenyl)amino)pyrimidin-4-yl)amino)-2-cyclopropylquinolin-5-yl)dimethylphosphine oxide], for which the IC50 at EGFR WT was greater than 3000 nM; at EGFR Δ19del/T790M/C797S it was 36 nM; at IGF1R it was greater than 3000 nM.

As for `COc1cc(Nc2ncc(Br)c(Nc3ccc4nc(C5CC5)ccc4c3P(C)(C)=O)n2)cc(C)c1N1CCOCC1` [Compound J-006, (6-((5-Bromo-2-((3-methoxy-5-methyl-4-morpholinylphenyl)amino)pyrimidin-4-yl)amino)-2-cyclopropylquinoline-5-yl)dimethylphosphine oxide], the half-maximal inhibitory concentration (IC50) is 714 nM at EGFR WT, 3.5 nM at EGFR Δ19del/T790M/C797S and 437 nM on IGF1R.

Take `COc1cc(N2CCOCC2)c(C#N)cc1Nc1ncc(Br)c(Nc2ccc3nc(C4CC4)ccc3c2P(C)(C)=O)n1` [Compound J-002, 5-((5-Bromo-4-((2-cyclopropyl-5-(dimethylphosphineoxide)quinolin-6-yl)amino)pyrimidin-2-yl)amino)-4-methoxy-2-morpholinebenzonitrile]: the half-maximal inhibitory concentration (IC50) at EGFR WT worked out at 62.8 nM; on EGFR Δ19del/T790M/C797S it was 0.4 nM; at IGF1R, 720 nM.
